Source: publication PMC7046148 (Scientific Reports, 2020)

Key:
Gibco hiPSCs = assay: LPM differentiation assay (FOXF1 high content imaging), Gibco hiPSCs; settings: Homo sapiens, 48 h, read-out: IC50 (±SEM) in LPM differentiation assay
Description: (§8) hiPSCs (Gibco or XCL-1 clones) were grown in mTeSR-1 on Matrigel, passaged into small clumps with Versene (4.5 min under normal culture conditions), counted as a single-cell suspension as described above, and seeded as small clumps at approximately 10,000 cells/well (30,000 cells/cm^2, ~15% confluence) in 100 µL mTeSR1 on Matrigel-coated µClear® 96-well plates (Greiner) for 1 d under normal culture conditions. On the day after seeding, the medium was replaced with 100 µL/well of mTeSR-1 (control) or APEL2 + GSKi containing either DMSO or diluted compounds (for a final DMSO concentration of 0.2%). The same conditions were replenished the following day for a total of 2 d of differentiation, and the following day (3 d after seeding), the medium was aspirated, and hiPSCs were fixed in 10% NBF for 15 min at room temperature.
(§9) Immunofluorescence staining was carried out by fixing/permeabilizing cells overnight in blocking buffer containing 3% BSA (Sigma) in DPBS-T, which contains DPBS + Ca^2+//Mg^2+ with 0.3% Triton-X100 (Sigma). Fixed and permeabilized cells were incubated in primary antibodies diluted (as noted in Table 1) in antibody buffer, consisting of 1% BSA in DPBS-T, overnight at 4 °C.
(§10) Cells were washed in blocking buffer for >6 hours at 4 °C and subsequently incubated in secondary antibody diluted in antibody buffer overnight at 4 °C. Secondary antibodies were washed out in antibody buffer for >4 h at 4 °C, and hiPSCs were counterstained with DAPI (Fisher) at 10 µg/mL in DPBS-T for 2 h. hiPSCs were washed in DPBS-T for >2 h at 4 °C, and immediately before imaging, the DPBS-T was replaced with DPBS. […] Chemical dose-response experiments and experiments examining the time-course of marker expression during LPM differentiation were imaged at 10X magnification using the Cellomics ArrayScan or CellInsight Cx7 LZR High Content Screening Platform and HCS Studio Cell Analysis Software (Thermo Fisher). An artificial threshold was uniformly applied to all images to generate the percentage of DAPI+ nuclei that stained positively for FOXF1 or NANOG. Thresholding for FOXF1 and T was performed relative to undiffer-entiated hiPSCs, and thresholding for SALL4 and OCT4 was performed relative to a non-expressing cell type (human primary endothelial cells). Settings for image acquisition and processing were uniformly applied between XCL-1 clones. […] Experiments were repeated in quadruplicate unless otherwise stated, and data are presented as mean ± SEM. Nonlinear regression analysis was performed using the 4-parameter [inhibitor]-vs-response curve fitting algorithm in Prism (GraphPad).

XCL-1 hiPSC SALL4^G416A [1] = assay: LPM differentiation assay (FOXF1 high content imaging), XCL-1 SALL4^G416A clone; settings: for IC50: Homo sapiens, 48 h, read-out: IC50 (±SEM) in LPM differentiation assay
Description: as §8, §9, §10
In addition, XCL-1 hiPSCs were engineered with CRISPR/Cas9 to express a homozygous SALL4 G416A mutation (hereafter referred to as the SALL4^G416A clone), and the homozygous SALL4 G416A mutation was confirmed by next-generation sequencing (Supplementary Fig. 2).

XCL-1 hiPSC SALL4 Mock [2] = assay: LPM differentiation assay (FOXF1 high content imaging), XCL-1 SALL4 Mock clone; settings: Homo sapiens, 48 h, read-out: IC50 (±SEM) in LPM differentiation assay
Description: as §8, §9, §10

XCL-1 hiPSC CRBN Mock [3] = assay: LPM differentiation assay (FOXF1 high content imaging), XCL-1 CRBN Mock clone; assay type: cell-based; settings: Homo sapiens, 48 h, % FOXF1+ cells after 2 d in APEL2+GSKi, read-out: IC50 (±SEM) in LPM differentiation assay
Description: On the day after seeding, the medium was replaced with 100 µL/well of mTeSR-1 (control) or APEL2 + GSKi containing either DMSO or diluted compounds (for a final DMSO concentration of 0.2%). The same conditions were replenished the following day for a total of 2 d of differentiation, and the following day (3 d after seeding), the medium was aspirated, and hiPSCs were fixed in 10% NBF for 15 min at room temperature.
as §9, §10

SALL4^G416A = target: T1, SALL4^G416A (Homo sapiens, UniProt Q9UJQ4, G416A); assay: SALL4 MFI by high content imaging, XCL-1 SALL4^G416A hiPSCs; assay type: cell-based; settings: SALL4^G416A hiPSC clone, 8 h of treatment
T1 construct: parental hiPSCs were engineered to express a homozygous G416A mutation in the endogenous SALL4 locus; endogenous in cells; host or cells: XCL-1 SALL4^G416A hiPSC clone (1E6), CRISPR/Cas9 knock-in at the endogenous locus
Excerpt: (§1) High content imaging analysis of SALL4 immunofluorescence with DAPI counterstaining in hiPSCs. […] Data represent the mean +/− SEM from 2 independent experiments.

SALL4 [4] = target: T2, SALL4 (Homo sapiens, UniProt Q96SW2+Q9UJQ4); assay: SALL4 nuclear protein expression (MFI) by high content imaging, Gibco hiPSCs; assay type: cell-based
T2 construct: Unmodified Gibco hiPSCs were either differentiated in APEL2 + GSKi or maintained in mTeSR1, and SALL4 nuclear protein expression was monitored; endogenous in cells; host or cells: Gibco hiPSCs; XCL-1 SALL4 mock hiPSC clone
Excerpt: as §1

SALL4 [5] = target: T2, SALL4; assay: SALL4 MFI by high content imaging, XCL-1 SALL4 mock hiPSCs; assay type: cell-based; settings: SALL4 mock control hiPSCs, 8 h of treatment
Excerpt: as §1

XCL-1 hiPSC CRBN KO/KI [6] = assay: LPM differentiation assay (FOXF1 high content imaging), XCL-1 CRBN KO/KI clone; assay type: cell-based, human; settings: for IC50: Homo sapiens, 48 h, XCL-1 CRBN KO/KI, % FOXF1+ cells after 2 d in APEL2+GSKi, read-out: IC50 (±SEM) in LPM differentiation assay
Description: On the day after seeding, the medium was replaced with 100 µL/well of mTeSR-1 (control) or APEL2 + GSKi containing either DMSO or diluted compounds (for a final DMSO concentration of 0.2%). The same conditions were replenished the following day for a total of 2 d of differentiation, and the following day (3 d after seeding), the medium was aspirated, and hiPSCs were fixed in 10% NBF for 15 min at room temperature. For time-course experiments, cells were fixed at the specified intervals after the start of LPM differentiation.
as §9
Cells were washed in blocking buffer for >6 hours at 4 °C and subsequently incubated in secondary antibody diluted in antibody buffer overnight at 4 °C. Secondary antibodies were washed out in antibody buffer for >4 h at 4 °C, and hiPSCs were counterstained with DAPI (Fisher) at 10 µg/mL in DPBS-T for 2 h. hiPSCs were washed in DPBS-T for >2 h at 4 °C, and immediately before imaging, the DPBS-T was replaced with DPBS. Initial characterization of LPM differentiation by immunofluorescence was carried out using the A1R confocal microscope (Nikon) equipped with 10X objective, and automated object analysis was carried out using NIS Elements v5 software (Nikon). Chemical dose-response experiments and experiments examining the time-course of marker expression during LPM differentiation were imaged at 10X magnification using the Cellomics ArrayScan or CellInsight Cx7 LZR High Content Screening Platform and HCS Studio Cell Analysis Software (Thermo Fisher). An artificial threshold was uniformly applied to all images to generate the percentage of DAPI+ nuclei that stained positively for FOXF1 or NANOG. Thresholding for FOXF1 and T was performed relative to undiffer-entiated hiPSCs, and thresholding for SALL4 and OCT4 was performed relative to a non-expressing cell type (human primary endothelial cells). Settings for image acquisition and processing were uniformly applied between XCL-1 clones. The capacity of all XCL-1 clones and Gibco hiPSCs to undergo LPM differentiation in the high content format was assessed by FOXF1 and NANOG immunostaining. […] Experiments were repeated in quadruplicate unless otherwise stated, and data are presented as mean ± SEM. Nonlinear regression analysis was performed using the 4-parameter [inhibitor]-vs-response curve fitting algorithm in Prism (GraphPad).
Using CRISPR/Cas9-mediated gene editing, both CRBN alleles were knocked out in XCL-1 hiPSCs cells, followed by the insertion at the AAVS1 locus of a transgene encoding human CRBN with E377V and V388I mutations (clone hereafter referred to as CRBN KO/KI).

XCL-1 hiPSC CRBN KO/KI [7] = assay: cells; assay type: cell-based; settings: Homo sapiens, 72 h; XCL-1 CRBN KO/KI; 3 d differentiation; read-out: IC50 (±SEM) in SOX17 differentiation assay
Description: (§2) The assay was carried out as previously described with continuous dosing of chemical for 3 total days of differentiation. SOX17 staining and DAPI counter-staining were carried out as described, and assays were imaged via high content imaging. […]
(§3) Supplementary Figure 7. Dose-response characterization of the influence […]
(§4) of XCL-1 clones. High content imaging analysis of XCL-1 hiPSC clones that were differentiated for 3 days in the presence of compound and subsequently stained for SOX17 and counter-stained with DAPI. Untreated DMSO control is omitted. Data represent the mean +/- SEM %SOX17 cells
(§5) (relative to control) from 4 independent experiments. Nonlinear regression […]
(§6) variable slope plotting tool in GraphPad Prism. A-C: Dose-response […]
(§7) in cereblon mock (hollow circles) or CRBN KO/KI (red filled circles) clones. D- […]

XCL-1 hiPSC SALL4^G416A [8] = assay: cells; assay type: cell-based; settings: Homo sapiens, 72 h; XCL-1 SALL4^G416A; 3 d differentiation; read-out: IC50 (±SEM) in SOX17 differentiation assay
Description: as §2, §3, §4, §5, §6, §7

XCL-1 hiPSC CRBN Mock [9] = assay: cells; assay type: cell-based; settings: Homo sapiens, 72 h; XCL-1 CRBN Mock; 3 d differentiation; read-out: IC50 (±SEM) in SOX17 differentiation assay
Description: as §2, §3, §4, §5, §6, §7

XCL-1 hiPSC SALL4 Mock [10] = assay: cells; assay type: cell-based; settings: Homo sapiens, 72 h; XCL-1 SALL4 Mock; 3 d differentiation; read-out: IC50 (±SEM) in SOX17 differentiation assay
Description: as §2, §3, §4, §5, §6, §7

human SALL4 = target: T3, human SALL4 (Homo sapiens, UniProt Q9UJQ4); assay: Immunoblot of SALL4 degradation in Lenti-x 293 CRBN-/- cells expressing human CRBN variants; assay type: cell-based
T3 construct: expressed in transfected cells; host or cells: Lenti-x 293 CRBN CRISPR KO (CRBN-/-) cells stably expressing human SALL4, transiently transfected with FLAG-CRBN variants
T3 sequence (Q96SW2 whole entry partner): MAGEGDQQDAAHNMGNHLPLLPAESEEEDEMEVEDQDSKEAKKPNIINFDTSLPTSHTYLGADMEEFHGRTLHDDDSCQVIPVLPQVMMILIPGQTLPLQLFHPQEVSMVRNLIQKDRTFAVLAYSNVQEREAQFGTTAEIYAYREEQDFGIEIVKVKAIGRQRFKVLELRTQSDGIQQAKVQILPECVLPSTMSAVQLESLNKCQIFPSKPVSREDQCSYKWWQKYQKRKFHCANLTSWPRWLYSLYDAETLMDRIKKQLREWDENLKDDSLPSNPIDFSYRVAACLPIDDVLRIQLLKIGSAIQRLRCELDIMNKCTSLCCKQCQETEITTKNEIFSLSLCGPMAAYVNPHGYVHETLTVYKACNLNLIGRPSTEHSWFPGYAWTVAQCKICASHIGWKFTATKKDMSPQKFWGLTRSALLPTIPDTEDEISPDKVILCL
T3 sequence (Q16531 whole entry partner): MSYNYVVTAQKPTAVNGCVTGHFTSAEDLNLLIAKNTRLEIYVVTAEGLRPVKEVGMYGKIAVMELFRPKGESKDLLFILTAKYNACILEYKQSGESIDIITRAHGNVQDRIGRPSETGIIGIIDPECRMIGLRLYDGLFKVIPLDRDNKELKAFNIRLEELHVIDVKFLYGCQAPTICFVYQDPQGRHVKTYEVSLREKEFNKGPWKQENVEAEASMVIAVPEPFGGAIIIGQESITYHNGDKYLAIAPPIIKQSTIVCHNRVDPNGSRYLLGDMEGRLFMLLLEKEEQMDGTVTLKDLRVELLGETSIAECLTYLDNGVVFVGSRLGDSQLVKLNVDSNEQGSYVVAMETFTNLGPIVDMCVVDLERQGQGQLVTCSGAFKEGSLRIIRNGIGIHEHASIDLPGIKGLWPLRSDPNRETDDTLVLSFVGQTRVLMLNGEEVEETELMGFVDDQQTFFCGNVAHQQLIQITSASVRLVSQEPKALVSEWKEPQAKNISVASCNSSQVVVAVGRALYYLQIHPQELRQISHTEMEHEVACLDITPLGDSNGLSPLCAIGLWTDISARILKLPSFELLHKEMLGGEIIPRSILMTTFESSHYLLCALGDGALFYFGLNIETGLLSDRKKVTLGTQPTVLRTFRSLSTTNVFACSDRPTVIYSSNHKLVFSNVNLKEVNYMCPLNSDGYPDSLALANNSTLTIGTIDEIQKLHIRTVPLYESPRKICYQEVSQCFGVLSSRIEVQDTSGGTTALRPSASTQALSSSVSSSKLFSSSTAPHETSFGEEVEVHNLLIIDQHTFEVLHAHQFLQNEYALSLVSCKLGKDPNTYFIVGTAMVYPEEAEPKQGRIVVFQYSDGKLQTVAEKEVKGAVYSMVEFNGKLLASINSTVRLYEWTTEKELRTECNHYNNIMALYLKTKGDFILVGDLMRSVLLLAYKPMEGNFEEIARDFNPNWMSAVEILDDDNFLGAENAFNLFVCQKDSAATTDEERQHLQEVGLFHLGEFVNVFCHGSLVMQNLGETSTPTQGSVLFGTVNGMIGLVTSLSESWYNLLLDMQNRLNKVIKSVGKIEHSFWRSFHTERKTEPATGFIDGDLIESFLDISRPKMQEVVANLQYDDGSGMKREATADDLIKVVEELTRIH
T3 sequence (Q9UJQ4 whole entry): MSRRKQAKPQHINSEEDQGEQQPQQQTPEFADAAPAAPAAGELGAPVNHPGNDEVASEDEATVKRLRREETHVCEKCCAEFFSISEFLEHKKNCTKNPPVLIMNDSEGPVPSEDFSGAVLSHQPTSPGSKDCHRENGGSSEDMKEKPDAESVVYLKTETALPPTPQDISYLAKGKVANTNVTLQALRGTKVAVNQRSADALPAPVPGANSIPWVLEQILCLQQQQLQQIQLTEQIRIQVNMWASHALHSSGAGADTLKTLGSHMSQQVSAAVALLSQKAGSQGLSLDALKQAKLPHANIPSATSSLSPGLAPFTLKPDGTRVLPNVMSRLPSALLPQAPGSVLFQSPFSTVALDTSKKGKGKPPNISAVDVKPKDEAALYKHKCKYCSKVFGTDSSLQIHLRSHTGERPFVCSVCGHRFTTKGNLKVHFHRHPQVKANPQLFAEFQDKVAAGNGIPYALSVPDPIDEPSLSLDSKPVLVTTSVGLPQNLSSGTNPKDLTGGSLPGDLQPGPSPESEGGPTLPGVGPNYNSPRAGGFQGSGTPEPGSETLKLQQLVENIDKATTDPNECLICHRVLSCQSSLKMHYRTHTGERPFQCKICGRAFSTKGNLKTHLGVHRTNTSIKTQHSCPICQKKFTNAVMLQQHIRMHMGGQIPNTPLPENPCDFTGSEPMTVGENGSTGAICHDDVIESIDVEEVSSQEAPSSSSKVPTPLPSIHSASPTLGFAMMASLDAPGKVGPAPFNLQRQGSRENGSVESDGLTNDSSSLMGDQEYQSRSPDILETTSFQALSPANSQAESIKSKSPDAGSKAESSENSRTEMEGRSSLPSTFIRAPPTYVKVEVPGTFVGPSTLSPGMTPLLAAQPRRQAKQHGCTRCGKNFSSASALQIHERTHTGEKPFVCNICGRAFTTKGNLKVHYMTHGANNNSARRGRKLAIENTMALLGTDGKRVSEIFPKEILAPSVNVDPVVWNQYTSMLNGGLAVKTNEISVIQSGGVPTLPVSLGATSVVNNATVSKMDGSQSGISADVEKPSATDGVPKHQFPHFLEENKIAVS
Description: SALL4 were transiently transfected with vectors expressing GFP or human CRBN variants and treated with
CRBN-/- cells transfected with empty vector were used as a negative control. The cells were then lysed and
characterized by immunoblotting analysis for SALL4, ZFP91, GFP, CRBN, and β-actin.
CRBN CRISPR KO (CRBN -/-) cells were maintained in Dulbecco’s Modified Eagle’s medium (DMEM;
Invitrogen) supplemented with 10% fetal bovine serum (FBS; Invitrogen). All cell lines were confirmed
mycoplasma-negative using the MycoAlert Mycoplasma Detection Kit (Lonza).
CRBN-/- cells stably expressing human SALL4 was transiently transfected with 4 µg of pcDNA3-GFP, pcDNA3-
FLAG-CRBN WT (isoform 1),pcDNA3-FLAG-CRBN E377V (isoform 1) or pcDNA3-FLAG-CRBN V388I (isoform
Cells were then harvested and lysed, and
whole cell extract was subjected to immunoblotting analysis. Cells were washed with ice-cold 1X PBS and
lysed in 50mM Tris-HCl [pH 7.6], 150 mM NaCl, 1% Triton X-100, and 1x Complete ULTRA protease inhibitor
cocktail and PhosSTOP phosphatase inhibitor cocktail. Whole cell extracts were collected after
centrifugation at top speed for 10 minutes, resolved by sodium dodecyl sulfate polyacrylamide gel
electrophoresis, transferred onto a nitrocellulose membrane using the Turboblot system (Bio-Rad), and
probed with the indicated primary antibodies. Bound antibodies were detected with IRDye®-680 or -800 […]

T2 sequence (Q9UJQ4 whole entry): as above
T2 sequence (Q96SW2 whole entry): as the sequence (Q96SW2 whole entry partner) above
T2 sequence (Q16531 whole entry partner): as the sequence (Q16531 whole entry partner) above
T1 sequence (Q96SW2 whole entry partner): as the sequence (Q96SW2 whole entry partner) above
T1 sequence (Q16531 whole entry partner): as the sequence (Q16531 whole entry partner) above
T1 sequence (Q9UJQ4 whole entry G416A): as the sequence (Q9UJQ4 whole entry) above, with G416A counted along it

Row | SMILES | IC50 (Gibco hiPSCs) | IC50 (XCL-1 hiPSC SALL4^G416A [1]) | inhibition of LPM differentiation at the two highest concentrations tested (XCL-1 hiPSC SALL4^G416A [1]; SALL4^G416A clone) | IC50 (XCL-1 hiPSC SALL4 Mock [2]) | IC50 (XCL-1 hiPSC CRBN Mock [3]) | effect on SALL4 MFI (SALL4^G416A) | time-course of SALL4 MFI (SALL4 [4]; 20 µM, Gibco hiPSCs in mTeSR1 or APEL2+GSKi, 2, 8 and 24 h after dosing) | magnitude of the decrease in SALL4 MFI (SALL4 [4]; Gibco hiPSCs, 8 h of treatment, dose-response) | effect on SALL4 MFI (SALL4 [5]) | inhibition of LPM differentiation at the highest concentration tested (XCL-1 hiPSC CRBN KO/KI [6]; 50 µM, CRBN KO/KI clone) | IC50 (XCL-1 hiPSC CRBN KO/KI [6]) | IC50 (XCL-1 hiPSC CRBN KO/KI [7]) | IC50 (XCL-1 hiPSC SALL4^G416A [8]) | IC50 (XCL-1 hiPSC CRBN Mock [9]) | IC50 (XCL-1 hiPSC SALL4 Mock [10]) | SALL4 degradation in human cells expressing CRBN with the V388I mutation (human SALL4)
1 | Nc1cccc2c1CN(C1CCC(=O)NC1=O)C2=O (stereo not shown) [Lenalidomide, lenalidomide] | 160 ± 80 nM | – | – | – | – | – | – | – | – | – | – | – | – | – | – | –
2 | Nc1cccc2c1C(=O)N(C1CCC(=O)NC1=O)C2=O (stereo not shown) [Pomalidomide, pomalidomide] | 10 ± 10 nM | > 50000 nM | modest inhibition of LPM differentiation | 90 ± 90 nM | 20 ± 10 nM | unchanged | rapid decline in SALL4 MFI 2 h after dosing | ~ 55% | potently reduced SALL4 MFI | inhibited LPM differentiation albeit not to the same magnitude as control hiPSCs | > 50000 nM | > 50000 nM | > 50000 nM | 20 ± 20 nM | 10 ± 10 nM | failed to induce SALL4 degradation
3 | NC(=O)c1ccc(-c2nc(-c3ccc4c(c3)OCO4)c(-c3ccccn3)[nH]2)cc1 [SB431542] | 2760 ± 5580 nM | 510 ± 100 nM | – | 630 ± 170 nM | 650 ± 180 nM | – | – | – | – | – | 790 ± 400 nM | – | – | – | – | –
